Like-named read-outs stand apart in the source and are kept apart here. Marks after values point to notes of the source that are not given here.
Experiments:
[1] = system: human acute myeloid leukemia cell line MOLM-13; assay: Cytotoxicity, WST-1 and nuclear morphology (Example 73); format: cell-based
Description: (§1) All cell culturing media and serum were from Sigma-Aldrich (St. Louis, Mo., USA). Product Nos. are given in parentheses. The human acute myeloid leukemia cell line MOLM-13 was cultured in RPMI medium (R5886) enriched with […] (F7524) and 0.2 mM L-glutamine (G7513). The normal rat kidney epithelial (NRK) and the rat cardiomyoblast (H9c2) cells were cultured in DMEM medium (D6429) enriched with 10% fetal bovine serum (F7524). All cell lines were additionally supplemented with 100 IU/mL penicillin and […] (P0781). The cells were cultured in a humidified atmosphere either under 2% or 20% O2 at 37° C.
(§2) All analogues were dissolved in DMSO (D5879, Sigma-Aldrich) at concentrations between 2.5 and 20 mM before testing. For cytotoxic testing, the MOLM-13 cells were seeded as 20,000 cells/well, while NRK and H9c2 cells were seeded as 5,000 cells/well in 96-well Microplates (#167008, Thermo Scientific™ Nunc™ MicroWell™) with 100 μL medium/well. The cells were exposed to various concentrations of iodinin or its analogues for 24 hrs before the cell proliferation reagent WST-1 was used to assess the viability, in accordance with the manufacturer's instructions (11644807001, Roche Diagnostics, Sigma-Aldrich). The cells were next fixed in 2% buffered formaldehyde (pH 7.4) with the DNA-specific dye Hoechst 33342 (Polysciences Inc.) and assessed for cell death by UV-microscopy based on nuclear morphology. The highest concentration of analogue corresponded to 1% of DMSO, which alone gave less than 7% cell death as judged by nuclear morphology.
(§3) EC50 values were determined by analyses of WST-1 signal results as well as microscopic evaluation of cell death by four-parameter regression analyses using the SigmaPlot software (Systat Software inc. San Jose, Calif.):
(§4) [formula] where Y is the response (WST-1 signal or percent apoptosis), min and max are minimum and maximum response, X is concentration of analogue, EC50 equals the point of inflection, i.e. the point that gives half of maximum response, and h is the Hill's slope of the curve. The two methods gave consistent response curves for each analogue. In the case of Tirapazamine, where its colour interfered with the WST-1 signal, only microscopic evaluation of Hoechst stained cells was used in order to calculate its EC50 values.

[2] = Parallel artificial membrane permeability assay (PAMPA); details: for Permeability: PAMPA class by ranges of Bennion et al.; for LogPeff: PAMPA
Description: The Corning Gentest™ pre-Coated parallel artificial membrane permeability assay PAMPA Plate System was from Cording Discovery Labware (Bedford, USA). The compounds were tested in room temperature at 50 μM using PBS as buffer. A total of 300 μl of the compound solution was added to each well of the donor plate, and 200 μl of PBS was added to the receiver filter plate. After incubation for five hours, 50 μl of the donor or acceptor well were injected into a reversed phase HPLC column (Kromasil 100-5 C18 150-4.6 mm, Akzo Nobel, Sweden) connected to a Merck-Hitachi LaChrome HPLC-system (VWR, WestChester, USA) with a L-7455 diode array detector. Mobile phase A was 0.05% aqueous TFA, and mobile phase B was acetonitrile. The flow rate was 1.6 ml/min and compounds eluted between 1 and 4.5 minutes was eluted during a 6.5 min gradient from 90:10% mobile phase A:B to 0:100% mobile phase A:B. The ratio of the compound concentrations in the donor and acceptor compartment was calculated after integration of the peaks at 285 nm. Peff was calculated as described in [Bennion B J, Be N A, McNerney M W, Lao V, Carlson E M, Valdez C A, et al. Predicting a Drug's Membrane Permeability: A Computational Model Validated With in Vitro Permeability Assay Data. The journal of physical chemistry B. 2017; 121(20):5228-37.]. Membrane permeability were classified by the range defined by Bennion et al., allowing for us to divide the compounds into four groups, compounds with high permeability (LogPeff>−5.33), intermediate permeability (LogPeff>−5.66 and <−5.33), low permeability (LogPeff>−6.14 and <−5.66) impermeable (LogPeff<−6.14).

[3] = system: Molm13 cells; assay: Anti-AML activity, WST-1 viability (Example 72); format: cell-based; details: Homo sapiens
Description: Dry powder of analogs were dissolved in DMSO. IPC-18 rat AML cells (Lacaze, N. et al. Leuk. Res. 1983, 7, 145.) were cultured in DMEM medium (Sigma-Aldrich, St. Louis, Mo., USA) supplemented with 10% horse serum (Invitrogen, Carlsbad, Calif., USA), and antibiotics (50 U/mL of penicillin and 0.05 mg/mL streptomycin). Molm13 (Matsuo, Y. et al. Leukemia 1997, 11, 1469.) cells were cultured in RPMI supplemented with antibiotics (50 U/mL of penicillin and 0.05 mg/mL streptomycin) and 10% fetal bovine serum (FBS, Invitrogen, Carlsbad, Calif.) and kept in exponential growth before the experiments. Dilution series of iodinin analogs were added to medium and cell suspension added to reach a final cell concentration of 150 000 cells/ml in 0.1 mL in a 96 well tissue culture plate. […] The cells were incubated with the iodinin analogs for 22 h before WST-1 was added according to the manufacturers protocol, and the cells incubated further in 2 h. Mitochondrial conversion of WST-1 to its colored metabolite was measured by a plate reader at 450 nm, with 620 nm as the reference wavelength. The cells were next fixed by adding 4% buffered formaldehyde (PBS, pH 7.4, supplemented with 0.01 mg/mL Hoechst 33342 for nuclear visualization) to the cell suspension at 1:1 (v/v) ratio (final concentration of formaldehyde:[…]). The cells' nuclear and surface morphology were examined microscopically and results compared with the WST-1 viability assay. The results given in Table I are based on WST-1 data.

[4] = system: rat cardiomyoblast (H9c2) cells; assay: Cytotoxicity, WST-1 and nuclear morphology (Example 73); format: cell-based; details: H9c2, 19% O2, 24 hours of incubation, read-out: EC50 (μM) H9c2 19% O2
Description: as §1, §2, §3, §4

[5] = system: normal rat kidney epithelial (NRK) cells; assay: as above; format: cell-based
Description: as §1, §2, §3, §4

[6] = system: hepG2; assay: Cytotoxicity (Example 73, Table 2); format: cell-based; details: Homo sapiens, HepG2, 24 h, read-out: EC50 (μM) hepG2
[7] = Homo sapiens, MOLM-13, 2% O2, 24 hours of incubation, read-out: EC50 (μM) MOLM-13 2% O2
[8] = Homo sapiens, MOLM-13, 19% O2, 24 hours of incubation, read-out: EC50 (μM) MOLM-13 19% O2
[9] = 50 μM in PBS, room temperature, five hours
[10] = Molm 13 cells, 2% O2, 24 h of incubation, WST-1, read-out: Molm 13 IC50 2% O2
[11] = Molm 13 cells, 20% O2, 24 h of incubation, WST-1, read-out: Molm 13 IC50 20% O2
[12] = Rattus norvegicus, 2% O2, 24 hours of incubation, read-out: EC50 (μM) NRK 2% O2
[13] = Rattus norvegicus, 19% O2, 24 hours of incubation, read-out: EC50 (μM) NRK 19% O2
[14] = MOLM-13, 2% O2, 24 hours of incubation, read-out: EC50 (μM) MOLM-13 2% O2
[15] = MOLM-13, 19% O2, 24 hours of incubation, read-out: EC50 (μM) MOLM-13 19% O2
[16] = Rattus norvegicus, 24 h, read-out: EC50 (μM) NRK 2% O2, NRK, 2% O2, 24 hours of incubation
[17] = Rattus norvegicus, 24 h, read-out: EC50 (μM) NRK 19% O2, NRK, 19% O2, 24 hours of incubation

Row | Structure (SMILES) | EC50 [1, 7] | EC50 [1, 8] | LogPeff [2, 9] | IC50 [3, 11] | EC50 ([4]; Rattus norvegicus) | EC50 [1, 14] | EC50 [1, 15] | EC50 [4] | EC50 [5, 16] | other results
1 | Oc1cccc2nc3c(O)cccc3nc12 [Example 1b, 1,6-dihydroxyphenazine] | 110 to 140 µM | 100 to 120 µM | −5.42 | – | – | – | – | – | – | Permeability [2]: Intermediate/high
2 | CCOC(=O)COc1cccc2c1[n+]([O-])c1cccc(O)c1[n+]2[O-] [Example 5c, 1-(2-(ethoxy)-2-oxoethoxy)-6-hydroxyphenazine 5,10-dioxide] | 0.49 ± 0.12 µM | 0.57 ± 0.06 µM | −4.70 | 0.85 µM | 15 ± 0.9 µM | – | – | – | – | IC50 [3, 10]: 0.65 µM; EC50 [5, 12]: 18 ± 1.5 µM; EC50 [5, 13]: 11 ± 1.6 µM
3 | O=C(O)COc1cccc2c1[n+]([O-])c1cccc(O)c1[n+]2[O-] [Example 7, 1-(carboxymethoxy)-6-hydroxyphenazine 5,10-dioxide] | 61 ± 4 µM | 54 ± 7 µM | −7.53 | – | – | – | – | – | – | –
4 | CN1CCN(C(=O)Oc2cccc3c2[n+]([O-])c2cccc(O)c2[n+]3[O-])CC1 [Example 8a, 1-hydroxy-6-((4-methylpiperazine-1-carbonyl)oxy)phenazine 5,10-dioxide] | – | – | – | – | – | 1.4 ± 0.06 µM | 1.5 ± 0.16 µM | 100 ± 13 µM | 59 ± 1.1 µM | EC50 [5, 17]: 53 ± 2 µM; EC50 [6]: 30 µM
5 | Cc1cc2c(cc1C)[n+]([O-])c1c(OC(=O)N3CCN(C)CC3)cccc1[n+]2[O-] [Example 8d, 7,8-dimethyl-1-((4-methylpiperazine-1-carbonyl)oxy)phenazine 5,10-dioxide] | – | – | – | – | – | 0.54 ± 0.06 µM | 0.63 ± 0.05 µM | 9.4 ± 0.55 µM | 13 ± 0.7 µM | EC50 [5, 17]: 11 ± 1.5 µM; EC50 [6]: 105 µM
6 | CN(C)C(=O)Oc1cccc2c1[n+]([O-])c1ccccc1[n+]2[O-] [Example 8k, 1-((dimethylcarbamoyl)oxy)phenazine 5,10-dioxide] | – | – | – | – | – | 2.1 ± 0.16 µM | 1.3 ± 0.15 µM | 16 ± 2.6 µM | 25 ± 0.6 µM | IC50 ([3]; MOLM-13, 24 h, read-out: Molm 13 IC50 20% O2): 0.32 µM; EC50 [5, 17]: 19 ± 1.3 µM
7 | CCCCC(=O)Oc1cccc2c1[n+]([O-])c1cccc(OC(=O)CCCC)c1[n+]2[O-] [Example 16b, 1,6-bis(pentanoyloxy)phenazine 5,10-dioxide] | 22 ± 2.8 µM | 36 ± 0.1 µM | −8.66 | ~40 µM | > 200 µM | – | – | – | – | –
8 | CCOC(=O)COc1cccc2c1[n+]([O-])c1cccc(OCC(=O)OCC)c1[n+]2[O-] [Example 16c, 1,6-bis(2-ethoxy-2-oxoethoxy)phenazine 5,10-dioxide] | 0.79 ± 0.06 µM | 2 ± 0.47 µM | – | 4.11 µM | > 20 µM | – | – | – | – | IC50 [3, 10]: 3.98 µM; EC50 [5, 12]: > 20 µM; EC50 [5, 13]: > 20 µM
9 | CC(C)(C)C(=O)Oc1cccc2c1[n+]([O-])c1cccc(OC(=O)C(C)(C)C)c1[n+]2[O-] [Example 16d, 1,6-bis(pivaloyloxy)phenazine 5,10-dioxide] | 8.9 ± 1.71 µM | 11 ± 0.7 µM | −5.86* | 4.05 µM | > 50 µM | – | – | – | – | IC50 [3, 10]: 5.59 µM
10 | CCOC(=O)Oc1cccc2c1[n+]([O-])c1cccc(OC(=O)OCC)c1[n+]2[O-] [Example 16e, 1,6-bis((ethoxycarbonyl)oxy)phenazine 5,10-dioxide] | 4 ± 0.33 µM | 6.1 ± 0.05 µM | – | 2.23 µM | > 25 µM | – | – | – | – | IC50 [3, 10]: 3.5 µM; EC50 [5, 12]: > 25 µM; EC50 [5, 13]: > 25 µM
11 | CCN(CC)C(=O)COc1cccc2c1[n+]([O-])c1cc(C)c(C)cc1[n+]2[O-] [Example 50, 1-(2-(diethylamino)-2-oxoethoxy)-7,8-dimethylphenazine 5,10-dioxide] | 3.4 ± 0.78 µM | 1.8 ± 0.24 µM | −5.42 | – | 41 ± 5.7 µM | – | – | – | – | EC50 [5, 12]: 52 ± 1.2 µM; EC50 [5, 13]: 21 ± 0.3 µM; Permeability [2]: Intermediate/high
12 | Cc1cc2c(cc1C)[n+]([O-])c1c(OC(=O)N3CCCC3)cccc1[n+]2[O-] [Example 52, 7,8-dimethyl-1-((pyrrolidine-1-carbonyl)oxy)phenazine 5,10-dioxide] | – | – | −5.32 | – | – | 0.78 ± 0.11 µM | 1.5 ± 0.02 µM | 8.7 ± 1.2 µM | 8.9 µM | EC50 [5, 17]: 6.6 ± 0.04 µM
13 | [O-][n+]1c2cc3ccccc3cc2[n+]([O-])c2c(O)cccc21 [Example 70, 1-hydroxybenzo[b]phenazine 5,12-dioxide] | – | – | −8.04 | – | – | – | – | – | – | –
14 | CN1CCN(C(=O)Oc2cccc3c2[n+]([O-])c2cc4ccccc4cc2[n+]3[O-])CC1 [Example 71, 1-((4-methylpiperazine-1-carbonyl)oxy)benzo[b]phenazine 5,12-dioxide] | – | – | −5.43 | – | – | 1.8 ± 0.1 µM | 2.8 ± 0.18 µM | 2.3 ± 0.05 µM | 7.5 ± 0.38 µM | EC50 ([5]; read-out: EC50 (μM) NRK 19% O2, 19% O2, 24 hours of incubation): 2 ± 0.06 µM; Permeability [2]: Intermediate/high
15 | Nc1n[n+]([O-])c2ccccc2[n+]1[O-] [Tirapazamine, reference compound] | – | – | – | – | – | – | – | – | – | LogPeff ([2]; 5 h, 50 μM): −5.79

Source: US11958842B2, “Substituted phenazines and methods of treating cancer and bacterial diseases” (Adjutec Pharma AS, priority 2016, dated 2024)
